{"source": "patent US9777069B2", "about": "“Compositions and methods for detection of methadone metabolite” (Siemens Healthcare Diagnostics Inc., priority 2012, dated 2017)", "test_system": "anti-EDDP antibody", "experiment": "Assay for EDDP analyte: homogeneous enzyme immunoassay with G6PDH-product of Step 14-SH-Step 14 conjugate, absorbance at 340 nm", "type": "binding", "conditions": "1 min after enzyme conjugate addition, Tris buffer pH 7.8", "experimental": "The experiments were conducted on an AGILENT® 8453 UV spectrophotometer (Agilent Technologies, Santa Clara Calif.). Typically, 2.5 mL Tris buffer (50 mM, containing 3.3 mM MgCl2, pH 7.8), 0.2 ml anti-EDDP antibody (1 mg/mL, commercially available from Lin Zhi International Inc. Sunnyvale Calif.), 0.1 mL glucose-6-phosphate (0.1 M), 0.1 mL NADP (0.006M) were taken in a quartz cuvette. To this, 0-4029 ng/mL EDDP in 10 μL methanol was added and mixed well. Then, 10 μL G6PDH-product of Step 14-SH-Step 14 (1 mg/mL) was added and mixed well. Increase in the absorbance at 340 nm was monitored at 1 min after the enzyme addition.", "data": [{"smiles": "CC=C1N(C)C(C)CC1(c1ccccc1)c1ccccc1", "note": "(stereo not drawn) [EDDP, 2-ethylidene-1,5-dimethyl-3,3-diphenylpyrrolidine]", "values": [{"measurement": "mAu 340 nm (increase in the absorbance at 340 nm)", "setting": "EDDP 370 ng/mL", "result": 456, "unit": "mAu"}, {"measurement": "mAu 340 nm (increase in the absorbance at 340 nm)", "setting": "EDDP 1221 ng/mL", "result": 497, "unit": "mAu"}, {"measurement": "mAu 340 nm (increase in the absorbance at 340 nm)", "setting": "EDDP 4029 ng/mL", "result": 561, "unit": "mAu"}]}]}
